These results are taken from US20260355132A1, “POLYMORPHIC FORMS OF EPINEPHRINE MALONATE” (Biothea Pharma, Inc., priority 2023, published 2026).

What all share (type): physicochemical
Data set [1] can be described thus: Kinetic solubility in water (HPLC). Particulars: 20 °C; for amount nearly dissolved in 0.5 mL of added water: 0.5 mL water; for amount nearly dissolved in 0.5 mL of added water / Approximate Solubility (mg/0.5 mL) / Approximate Solubility / Approximate Solubility (g/mL): 30 min; for Approximate Solubility (mg/0.5 mL) / Approximate Solubility / Approximate Solubility (g/mL) / Content of Salt in VF (mg) 30 min: water, HPLC; for Approximate Solubility / Approximate Solubility (g/mL): kinetic solubility. As to the method: The kinetic solubility of Form A epinephrine malonate salt and bitartrate salt was determined using the procedure described herein. The solid active pharmaceutical ingredient was allowed to equilibrate from 5 °C to ambient temperature for 1 h. Solids were weighed (0.76 g of malonate and 0.20 g of bitartrate) into 4-mL vials containing a magnetic polytetrafluoroethylene (PTFE) stir bar. Water (0.5 mL) was added and samples were stirred at 20 °C. Additional API was gradually added in small portions over 30 min until trace amount of residual solid was present. At 30 min, the content of the nearly dissolved sample was transferred to a volumetric flask (VF), diluted, subjected to HPLC analyses, and adjusted for initial volume of water used.
The HPLC analysis was conducted using an Agilent 1100 with a Phenomenx Gemini C18, 100×4.6 mm, 3.0 um column. The column temperature was 50 °C, wavelength 210 nm, and flow rate 1.2 mL/min. Mobile Phase A was 5:95 MeCN: Buffer and Mobile Phase B was 45:55 MeCN: Buffer.
The kinetic solubility of Form B was determined using the procedure described herein. The solid Form B was allowed to equilibrate from storage temperature (5 °C) to ambient temperature for 1 hour. Solids were weighed (0.025 g of Form B) into a 4-mL vial containing a magnetic PTFE stir bar. Water (0.5 mL) was added and the sample was stirred at 20 °C. Additional API was gradually added in small portions over 30 min until trace amount of residual solid was present. At 30 minutes, the content of the nearly dissolved sample was transferred to a volumetric flask (VF), diluted, subjected to HPLC analyses, and adjusted for initial volume of water used.

The nature of data set [2]: Water solubility of epinephrine malonate salt (general description). The conditions noted are these: no method given.
Data set [3] is described as follows: pKa of epinephrine malonate salt Form A (general description). The conditions noted are these: no method given.
The nature of data set [4]: Relative thermodynamic stability studies in EtOH, EtOH/water and IPA/water; solid-state form stability. Particulars: for water activity (aw) at which the form is most-stable: room temperature; for relative humidity at which the form is kinetically stable: solid state, Form B once formed, Form C (days). As for the experimental part:
Relative thermodynamic stability studies in EtOH (crystallization process solvent), EtOH/water and IPA/water were performed. […] The critical water activity for Forms A/B interconversion is between aw=0.4-0.55 (40-55% RH). The transition temperature (Tt) for the enantiotropically related Forms A/C is between RT-40 °C. […] Form C is kinetically stable in solid state (days) at <40% RH.

The nature of data set [5]: Dynamic vapor sorption (DVS). The conditions noted are these: 25 °C, nitrogen carrier gas, 0-95% relative humidity. As for the experimental part:
Form A was subjected to DVS. DVS is a gravimetric technique that measures how quickly and how much of a solvent is absorbed by a sample such as a dry powder absorbing water. The test was conducted using a Surface Measurement Systems DVS Intrinsic Plus at a temperature of 25 °C and using nitrogen as a carrier gas. The relative humidity range spanned from 0-95% and the maximum equilibration time was 240 minutes. The relative humidity steps included 40-50-60-70-75-70-60-50-40-30-20-10-0-10-20-30-40-50-60-70-75-80-90-95-90-80-75-70-60-50-40-30-20-10-0%.
Form A was subjected to the increasing relative humidity until a change in mass occurred. Once a change in mass resulted, the relative humidity was lowered to determine stability of the resulting mass. The relative humidity was then increased again until another change in mass resulted. Once a change in mass resulted, the relative humidity was lowered to determine stability of the resulting mass.

Data set [6] can be described thus: Stability profile of epinephrine malonate salt (general description). Particulars: 7, 14, 30, 60, 90, 120, or 150 days.
The mark [7] stands for this setting: listed as Epinephrine Malonate Form A.
[8] abbreviates: relative thermodynamic stability.

Where a name gives a salt, the structure may show the parent alone.

`CNC[C@H](O)c1ccc(O)c(O)c1` [Epinephrine Bitartrate, epinephrine bitartrate, reference compound]: in data set [1] (listed as bitartrate salt), the “amount nearly dissolved in 0.5 mL of added water” value (“amount nearly dissolved in 0.5 mL” for short) came to 259 mg and the “Approximate Solubility (g/mL)” value is given as ~ 0.52 g/mL. Further, in data set [1], the “Approximate Solubility (mg/0.5 mL)” value is listed as about 259 mg mg/0.5 mL, the “Approximate Solubility” value is about 520 mg/mL and the “Content of Salt in VF (mg) 30 min” value was 259.45 mg.

Take `CNC[C@H](O)c1ccc(O)c(O)c1` [Form A, epinephrine malonate]: in data set [1], the “amount nearly dissolved in 0.5 mL” value came out at 912 mg and the “Approximate Solubility (g/mL)” value was ~ 1.82 g/mL. Besides, in data set [1] (setting [7]), the “Approximate Solubility” value is about 1820 mg/mL, the “Approximate Solubility (mg/0.5 mL)” value is recorded as about 911 mg mg/0.5 mL and the “Content of Salt in VF (mg) 30 min” value amounted to 911.53 mg. Further, the solubility (in general, how much of the substance goes into solution per volume) in data set [2] (water) was at least 1140 mg/mL. Besides, in data set [3], the pKa (usually the pH at which an ionisable group is half protonated) came out at 5.47. In data set [4], the “critical relative humidity for Forms A/B interconversion” value is 40-55 % RH and the “critical water activity for Forms A/B interconversion (aw)” value is recorded as 0.4-0.55. For the same molecule, the “water activity (aw) at which the form is most-stable” value in data set [4] (setting [8]) is at most 0.4. The “changes in mass during DVS” value in data set [5] was “Two changes in mass occurred”.

`CNC[C@H](O)c1ccc(O)c(O)c1` [Form B, epinephrine malonate]: in data set [1], the “amount nearly dissolved in 0.5 mL” value was found to be 511 mg, the “Approximate Solubility (mg/0.5 mL)” value is about 511 mg mg/0.5 mL, the “Approximate Solubility” value turned out to be 1000 mg/mL and the “Content of Salt in VF (mg) 30 min” value was 511 mg. For the same molecule, in data set [4], the “critical relative humidity for Forms A/B interconversion” value is listed as 40-55 % RH, the “critical water activity for Forms A/B interconversion (aw)” value is given as 0.4-0.55 and the “relative humidity at which the form is kinetically stable” value is listed as 0-80 % RH. Besides, the “water activity (aw) at which the form is most-stable” value in data set [4] (setting [8]) is at least 0.55. The “relative humidity for solid-state transition from Form A to Form B” value in data set [4] (solid-state) is given as at least 40 % RH. For the same molecule, the “formation of Form B in solid state” value in data set [4] (solid-state, >55% RH) is recorded as “forms relatively quickly (hours) at >55% RH”.

Take `CNC[C@H](O)c1ccc(O)c(O)c1` [Form C, epinephrine malonate]: the “water activity (aw) at which the form is more stable at 40 °C” value in data set [4] (40 °C, relative thermodynamic stability) is 0. Also, in data set [4], the “relative humidity at which the form is kinetically stable” value was under 40 % RH.

Take `CNC[C@H](O)c1ccc(O)c(O)c1` [epinephrine malonate salt, epinephrine malonate]: the “water solubility compared with other epinephrine salts (maleate, fumarate, hemi sulfate, bitartrate, hydrochloride)” value in data set [2] (crystalline form) was “substantially higher”. Further, in data set [6], the stability profile result is on record as “favorable stability profile”.
